Data as given in patent US20110207697A1, “XANTHOHUMOL COMPOSITIONS AND METHODS FOR TREATING SKIN DISEASES OR DISORDERS” (Betal, LLC, priority 2008, published 2011).
Values after ≈ are worked out from the molar mass of the structure shown.

Tests used:
[1] = molecular target: T1, neutrophil collagenase (MMP-8) (Homo sapiens, UniProt P22894); test: Anticollagenase assay; type: biochemical; conditions: mean of three measurements
T1 construct: from tissue; host or cells: human neutrophils
Procedure: (§1) Human recombinant matrix metalloproteinase-MMP-1) pro-enzyme, expressed in mammalian cells, and human nutrophil MMP-8 pro-enzyme were activated with 4-aminophenylmercuric acetate for 60 min 37 1 C, respectively (Knight et al. 1992 FEBS Lett. 296: 263-266). Hop components and vehicle were preincubated with 5 nM MMP- and 6 nM MMP-8 active enzymes in a modified MOPS buffer, pH 7.2, for 60 minutes at 37 C. The reaction was initiated by addition of […] Mca-Pro-Leu-Gly-Leu-Dpa-Ala-Arg for another 120-minute incubation period. The determination of the amount of Mca-Pro-Leu-Gly formed was read spectrofluorimetrically at 340/400 nm. Tissue inhibitors of metalloproteinase TIMP-1 and TIMP-2 were used as positive controls (Olson et 1997 J. Biol. Chem. 272: 29975-29983).

[2] = molecular target: T2, interstitial collagenase (MMP-1) (Homo sapiens, UniProt P03956); test: Anticollagenase assay; type: biochemical; conditions: mean of three measurements
T2 construct: host or cells: mammalian cells
T2 sequence (P03956 100-469): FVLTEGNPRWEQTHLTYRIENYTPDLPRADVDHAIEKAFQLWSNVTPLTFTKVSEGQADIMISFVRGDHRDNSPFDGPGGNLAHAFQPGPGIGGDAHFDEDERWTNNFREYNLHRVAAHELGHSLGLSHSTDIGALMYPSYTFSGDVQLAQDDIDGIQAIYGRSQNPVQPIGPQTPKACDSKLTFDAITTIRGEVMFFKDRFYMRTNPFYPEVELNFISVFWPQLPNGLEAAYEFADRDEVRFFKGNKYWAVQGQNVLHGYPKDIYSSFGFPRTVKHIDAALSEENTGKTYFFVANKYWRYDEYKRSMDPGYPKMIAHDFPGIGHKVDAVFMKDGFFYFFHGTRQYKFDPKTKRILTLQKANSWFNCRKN
Procedure: as §1

[3] = ORAC-Total (ORAClipo + ORAChydro)
Text: An ORAC method for lipophilic antioxidants was further developed and validated using fluorescein as the fluorescent probe (Prior et al. 2003 J. Agric. Food Chem. 51: 3273-3279). This method has the advantage that similar assay conditions and standards can be used for both hydrophilic and lipophilic antioxidant components, such that the two values can be added together to obtain a total antioxidant capacity. In the present work, the ORAC value is expressed as the sum of values of both the water-soluble and fat-soluble parts. Green tea catechins (Polyphenon 60) were used as the control with the highest ORAC value among edible plants. Vitamin C and vitamin E were used as controls for water- and fat-soluble molecules, respectively. […] The SOAC scores are not included in this figure; ORAC values used are the sum of lipophilic and hydrophilic results. For each assay category, scaling was made logarithmic so that the plot on the chart resembles the associated rating. […] The larger the spatial area, the higher the overall antioxidative capacity. […] Both hydrophilic and lipophilic oxygen radical absorbance capacity (ORAC) assays were carried out at Brunswick Laboratory (Wareham, Mass.) based on the modified ORACfl method reported by Ou et al. (2001 J. Agric. Food Chem. 49: 4619-4626, 2002 J. Agr. Food Chem. 50: 3122-3128). Trolox, a water-soluble vitamin E analog, was used as the calibration standard. The data are expressed as mmole of Trolox equivalents per gram (mmol TE/g). The acceptable precision of the ORAC assay is a 15% relative standard deviation. Caffeic acid was used as the calibration standard. Hydroxyl radical ORAC (HOR-AC) is expressed as mmole caffeic acid equivalent per gram (mmol CAE/g). Trolox was used as the calibration standard. The peroxyl nitrite ORAC (NORAC) result is expressed as mmol TE/g. Alpha-tocopherol (vitamin E) was used as the calibration standard, and the singlet oxygen absorbance capacity (SOAC) result is expressed as mmole a-tocopherol equivalent (mmol VtE) per gram (Aubry et al. 1989). The abbreviation for the 1,1-diphenyl-2-picrylhydrazyl radical is DPPH. Radical-scavenging activity was measured by the change in absorbance at 517 nm with the DPPH result expressed as mmol TE/g. Similarly, FRAP is an abbreviation for the ferric reducing antioxidative power method, which utilizes chemical conversion of the yellow Fe 3+-2,4,6-tripyridyl s-triazine (TPTZ) complex to the blue Fe 2+-TPTZ complex by electron donation under acidic conditions (Okada and Okada 1998 J. Agric. Food Chem. 46: 401-406). The FRAP result is expressed as mmol TE/g (Ou et al. 2002b). Superoxide dismutase (SOD) was used as a calibration standard; the SOD result is expressed as kilo unit SOD equivalent (kunitSODeq) per gram.

[4] = system: K. rhizophila (formerly M. luteus) (ATCC 9341); test: Antimicrobial susceptibility, broth dilution (MIC/MBC); type: cell-based, Kocuria rhizophila
Procedure: The antibacterial effects of seven hops components against five different strains of bacteria involved in primary or secondary skin and soft tissue infections was evaluated, with broth dilution methods. […] Antimicrobial susceptibility testing was performed using a broth dilution method. Gentamicin or ampicillin was used as a control to verify the methodology. A stock solution (20 mg/ml) of the test substance (or vehicle control) was prepared in dimethyl sulfoxide. Serial dilution was done in microwell plates. Reinforced Clostridial Medium was used for P. acnes (ATCC 6919). Three hundreds […] of the test substance was added to the test tube containing P. acnes (10^5 CFU/ml) in 2.7 ml of cultures grown under anaerobic conditions. Mueller-Hinston Broth suitable for culturing S. epidermidis (ATCC 12228), K. rhizophila (formerly M. luteus) (ATCC 9341), and S. aureus (ATCC […]), and Brain Heart Infusion Broth suitable for culturing S. pyogenes (ATCC 14289) were used. A total of […] of the test substance was added to the test tube containing the other microorganisms (10^5CFU/ml) in 0.9 ml of cultures grown under controlled conditions. […] Samples from those tubes that scored positive was plated onto an agar plate and incubated under controlled conditions.

T1 sequence (P22894 101-467): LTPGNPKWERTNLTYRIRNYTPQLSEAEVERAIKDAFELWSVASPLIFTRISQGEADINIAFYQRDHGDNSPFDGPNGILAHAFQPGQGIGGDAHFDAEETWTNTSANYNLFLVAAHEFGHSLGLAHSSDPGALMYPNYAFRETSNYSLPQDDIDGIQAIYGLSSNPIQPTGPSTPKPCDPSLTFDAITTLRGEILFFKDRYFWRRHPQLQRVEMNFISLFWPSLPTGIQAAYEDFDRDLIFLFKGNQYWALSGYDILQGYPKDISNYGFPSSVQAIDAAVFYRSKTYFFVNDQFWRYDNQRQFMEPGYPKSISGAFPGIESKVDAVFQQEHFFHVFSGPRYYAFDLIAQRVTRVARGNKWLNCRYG

Inhibitory ratio (%) MMP-8 ([1]; 10 μg/mL): 31%
Inhibitory ratio (%) MMP-8 ([1]; 30 μg/mL): 70%
Inhibitory ratio (%) MMP-8 ([1]; 100 μg/mL): 99%
Inhibitory ratio (%) MMP-1 ([2]; 10 μg/mL): 25%
Inhibitory ratio (%) MMP-1 ([2]; 30 μg/mL): 65%
Inhibitory ratio (%) MMP-1 ([2]; 100 μg/mL): 91%
MIC ([4]; 1 day): 1 mg/L (≈ 2.82 µM)
MIC ([4]; Kocuria rhizophila, ATCC9341): 1000 mg/L (≈ 2820 µM)
SMILES: COc1cc(O)c(CC=C(C)C)c(O)c1C(=O)/C=C/c1ccc(O)cc1 [Xanthohumol (7), 3′-[3,3-dimethylallyl]-2′,4′,4-trihydroxy-6′-methoxychalcone]
quenching activity against peroxyl radical (ORAC-total), rank among hop components ([3]; FIG. 2 radar chart): highest quenching activity
ORAC-Total (Trolox equivalent) ([3]; ORAClipo + ORAChydro): 4.2 Trolox equivalent
MBC [4]: [10] g/mL
